Test system: SEM cells
Assay: cell viability relative to DMSO control; higher = less cytotoxic
Settings: 48 h
Procedure, shortened: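 Before seeding, each leukemia line was adapted for at least four passages in each medium. NOMO1 or SEM cells (500 cells/well) and P12-Ichikawa cells (1000 cells/well) went into 1536-well plates at 5 μl, then received library compounds in DMSO by pin dosing across 11 threefold concentrations, 47 μM to 0.79 nM. Readout was CellTiter-Glo One luminescence after 48 h at 37°C, and viability is given as a per-plate percentage of DMSO wells, with cell-free wells as background.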

[1] = HPLM + 10% dialyzed FBS, 0.000781 µM
[2] = HPLM + 10% dialyzed FBS, 0.00234 µM
[3] = HPLM + 10% dialyzed FBS, 0.00702 µM
[4] = HPLM + 10% dialyzed FBS, 0.0211 µM
[5] = HPLM + 10% dialyzed FBS, 0.0632 µM
[6] = HPLM + 10% dialyzed FBS, 0.19 µM
[7] = HPLM + 10% dialyzed FBS, 0.569 µM
[8] = HPLM + 10% dialyzed FBS, 1.71 µM
[9] = HPLM + 10% dialyzed FBS, 5.12 µM
[10] = HPLM + 10% dialyzed FBS, 15.4 µM
[11] = HPLM + 10% dialyzed FBS, 46.1 µM
[12] = RPMI 5 mM glucose + 10% FBS, 0.000781 µM
[13] = RPMI 5 mM glucose + 10% FBS, 0.00234 µM
[14] = RPMI 5 mM glucose + 10% FBS, 0.00702 µM
[15] = RPMI 5 mM glucose + 10% FBS, 0.0211 µM
[16] = RPMI 5 mM glucose + 10% FBS, 0.0632 µM
[17] = RPMI 5 mM glucose + 10% FBS, 0.19 µM
[18] = RPMI 5 mM glucose + 10% FBS, 0.569 µM
[19] = RPMI 5 mM glucose + 10% FBS, 1.71 µM
[20] = RPMI 5 mM glucose + 10% FBS, 5.12 µM
[21] = RPMI 5 mM glucose + 10% FBS, 15.4 µM
[22] = RPMI 5 mM glucose + 10% FBS, 46.1 µM
[23] = RPMI 5 mM glucose + 10% dialyzed FBS, 0.000781 µM
[24] = RPMI 5 mM glucose + 10% dialyzed FBS, 0.00234 µM
[25] = RPMI 5 mM glucose + 10% dialyzed FBS, 0.00702 µM
[26] = RPMI 5 mM glucose + 10% dialyzed FBS, 0.0211 µM
[27] = RPMI 5 mM glucose + 10% dialyzed FBS, 0.0632 µM
[28] = RPMI 5 mM glucose + 10% dialyzed FBS, 0.19 µM
[29] = RPMI 5 mM glucose + 10% dialyzed FBS, 0.569 µM
[30] = RPMI 5 mM glucose + 10% dialyzed FBS, 1.71 µM
[31] = RPMI 5 mM glucose + 10% dialyzed FBS, 5.12 µM
[32] = RPMI 5 mM glucose + 10% dialyzed FBS, 15.4 µM
[33] = RPMI 5 mM glucose + 10% dialyzed FBS, 46.1 µM

SMILES	cell viability [1]	cell viability [2]	cell viability [3]	cell viability [4]	cell viability [5]	cell viability [6]	cell viability [7]	cell viability [8]	cell viability [9]	cell viability [10]	cell viability [11]	cell viability [12]	cell viability [13]	cell viability [14]	cell viability [15]	cell viability [16]	cell viability [17]	cell viability [18]	cell viability [19]	cell viability [20]	cell viability [21]	cell viability [22]	cell viability [23]	cell viability [24]	cell viability [25]	cell viability [26]	cell viability [27]	cell viability [28]	cell viability [29]	cell viability [30]	cell viability [31]	cell viability [32]	cell viability [33]
CC(N[C@H]1CCCC[C@@H]1NC(=O)c1ccc(Cl)cc1)c1cccc2ccccc12 (some centres undefined)	98.2%	105%	110%	114%	111%	112%	101%	115%	112%	118%	119%	92.2%	102%	109%	120%	107%	108%	121%	113%	119%	138%	110%	120%	112%	109%	114%	116%	114%	125%	127%	115%	133%	121%
CC[C@H]1OC(=O)[C@H](C)C(=O)[C@H](C)[C@@H](O[C@H]2O[C@H](C)C[C@H](N(C)C)[C@H]2O)[C@](C)(OC)C[C@@H](C)C(=O)[C@H](C)[C@H]2N(CCCCn3cnc(-c4cccnc4)c3)C(=O)O[C@]12C	99.7%	118%	136%	120%	135%	123%	105%	109%	107%	105%	85.2%	95.6%	110%	116%	117%	124%	114%	114%	97.8%	119%	102%	93.3%	110%	124%	121%	117%	135%	126%	99.3%	119%	104%	118%	86.1%
O=C(CCCN1CCN(c2ccc(F)cc2)CC1)NC1c2ccccc2CSc2ccccc21 (centres undefined)	111%	135%	116%	126%	131%	121%	33.8%	126%	113%	118%	89.6%	128%	112%	115%	115%	120%	118%	51%	103%	101%	92%	49.9%	112%	122%	102%	104%	123%	112%	40.7%	113%	95.3%	81.2%	43.6%
CCCCOCCOc1nc(-c2ccc(C(=O)O)c(F)c2)sc1C	124%	126%	120%	125%	123%	124%	108%	111%	115%	109%	119%	101%	111%	113%	118%	104%	109%	107%	102%	102%	84.5%	106%	105%	113%	108%	122%	121%	111%	116%	120%	97.4%	104%	121%
COc1cc[nH]c2ncc(C(=O)C(=O)N3CCN(C(=O)c4ccccc4)C[C@H]3C)c1-2	89.9%	87.6%	77.4%	90.1%	58.5%	82.6%	92%	96.8%	88.8%	94.2%	109%	115%	109%	112%	116%	74.2%	100%	100%	103%	113%	99.9%	96.9%	118%	109%	129%	115%	84.4%	102%	107%	101%	102%	103%	106%
COc1cccc2c1C(=O)c1c(O)c3c(c(O)c1C2=O)C[C@@](O)(C(=O)CO)C[C@@H]3O[C@H]1C[C@H](N)[C@H](O)[C@H](C)O1	96.4%	103%	117%	124%	105%	92.4%	47.5%	12.9%	6.97%	4.92%	3.63%	–	–	–	–	–	–	–	–	–	–	–	106%	100%	108%	92%	101%	69.9%	40.1%	9.78%	5.67%	3.74%	2.82%
CNCC[C@H](Oc1cccc2ccccc12)c1cccs1	121%	128%	110%	122%	121%	130%	111%	99.4%	110%	84.2%	46.4%	124%	117%	119%	116%	110%	136%	111%	107%	86%	96.2%	24%	–	–	–	–	–	–	–	–	–	–	–
